Measurements from patent US12630580B2, “5′-O-phenylacetyluridine and therapeutic use” (PHARMA CINQ, LLC, priority 2020, dated 2026).

Assays:
TNFα = assay: LPS-induced elevation of plasma TNFα (inflammation model); assay type: in vivo; details: female BALB/c mice; for TNF α ± SEM: plasma one hour after LPS
Experimental: Injection of bacterial cell wall constituent lipopolysaccharide (LPS) has been used as a model of inflammation. The inflammatory cascade can lead to cellular and organ damage when unchecked.
Female BALB/c mice […] of age (n=7-8/group) were treated with Vehicle (0.75% HPMC) or PAU p.o. and 30 minutes later LPS (2.5 mg/kg i.p.) was administered. One hour after LPS, mice were sacrificed and blood was collected for measurement of plasma TNFα.

[1] = Plasma concentrations of uridine, PB and metabolites after oral administration (comparative bioavailability)
Experimental: The delivery of phenylacetate into the bloodstream after oral administration of PAU was also assessed. Sodium phenylbutyrate is used in clinical practice as an ammonia scavenger in hepatic encephalopathy or genetic nitrogen cycle disorders, or as a chaperone or histone deacetylase inhibitor. It is predominantly metabolized to phenylacetate via beta-oxidation in the liver, and phenylacetate mediates the therapeutic benefits of phenylbutyrate. PAU was administered orally at a dose equimolar to 200 mg/kg sodium phenylbutyrate. Female BALB/c mice (n=3-5 group) were given test compounds p.o. and after 30 minutes were retro-orbitally bled to obtain plasma. […] An equimolar dose or uridine was used as a comparator for efficiency of delivery of uridine into the circulation by oral administration of PAU.

[2] = female BALB/c mice, p.o., dose equimolar to 200 mg/kg sodium phenylbutyrate, plasma 30 minutes after dosing

| Compound | TNF α ± SEM (TNFα; PAU 165 mg/kg p.o. 30 minutes before LPS 2.5 mg/kg i.p., Vehicle 15,981 ± 2,951) | TNF α ± SEM (TNFα; PAU 331 mg/kg p.o. 30 minutes before LPS 2.5 mg/kg i.p., p < .05 compared to Vehicle (15,981 ± 2,951)) | Anti-inflammatory effect in the LPS-induced elevation of plasma TNFα (TNFα; p.o.) | Elevation of plasma uridine and uracil compared with equimolar dose of oral uridine ([1]; oral, mice) | Plasma concentration of PA (phenylacetate) [1, 2] | Plasma concentration of PB (phenylbutyrate) [1, 2] |
| --- | --- | --- | --- | --- | --- | --- |
| O=C(Cc1ccccc1)OC[C@H]1O[C@@H](n2ccc(=O)[nH]c2=O)[C@H](O)[C@@H]1O [PAU, 5′-O-Phenylacetyluridine] | 10,068 ± 2,583 pg/ml | 7,034 ± 1,236 + pg/ml | significant anti-inflammatory effect | elevated plasma uridine and uracil better | – | – |
| sodium phenylbutyrate [NaPB] | – | – | – | – | 401 µM | 26 µM |
